Assays:
[1] = system: platelet aggregation in Dog PRP; assay: In-Vitro Platelet Aggregation in PRP (ADP induced); type: cell-based; details: Canis lupus familiaris, ADP 50 um final concentration
Procedure: Healthy male or female dogs were fasted for 8 hours prior to drawing blood; then 30 ml whole blood was collected using a butterfly needle and 30 cc plastic syringe with 3 ml of 0.129 M buffered sodium citrate (3.8%). The syringe was rotated carefully as blood was drawn to mix the citrate. Platelet-rich plasma (PRP) was prepared by centrifugation at 975×g for 3.17 minutes at room temperature allowing the centrifuge to coast to a stop without braking. The PRP was removed from the blood with a plastic pipette and placed in a plastic capped, 50 mL Corning conical sterile centrifuge tube which was held at room temperature. Platelet poor plasma (PPP) was prepared by centrifuging the remaining blood at 2000×g for 15 minutes at room temperature allowing the centrifuge to coast to a stop without braking. The PRP was adjusted with PPP to a count of 2-3×10^8 platelets per mL. 400 uL of the PRP preparation and 50 uL of the compounds solution to be tested or saline were preincubated for 1 minute at 37° C. in a […].). 50 uL of adenosine 5' diphosphate (ADP) (50 um final concentration) was added to the cuvettes and the aggregation was monitored for 1 minute. All compounds are tested in duplicate. Results are calculated as follows: Percent of control=[(maximal OD minus initial OD of compound) divided by (maximal OD minus initial OD of control saline)]×100. The % inhibition=100-(percent of control).
The compounds tested and their median inhibitory concentrations (IC50) are recorded in Table I. IC50 's (dosage at which 50% of platelet aggregation is inhibited) were calculated by linear regression of the dose response curve.

[2] = system: ex vivo collagen induced platelet aggregation; assay: Inhibition of ex vivo collagen induced aggregation (compound administered to dogs); design: species or system dog (Beagles); key: *: not active at the dose tested; details: intragastric (IG) administration to dogs; collagen induced aggregation in PRP ex vivo; dose not given
Procedure: The purpose of this assay is to determine the effects of antiplatelet compounds on ex vivo collagen induced platelet aggregation when administered either intravenously or orally to dogs.
Pretreatment (control) blood samples are drawn from either conscious or anesthetized dogs (Beagles) and centrifuged to prepare platelet rich plasma (PRP). Aggregatory response to collagen is measured in a aggregometer and used as Control. Compounds are administered, either intragasterically (either by capsule or stomach tube or intravenously). Blood samples are drawn at predetermined intervals after compound administration, PRP prepared and aggregation to collagen determined. Compound inhibition of aggregation is determined by comparing the aggregation response after compound administration to the pretreatment response.

N=C(N)c1ccc(NC(=O)N2CCCC(C(=O)NC(CC(=O)O)c3cccnc3)C2)cc1 (stereo not drawn) [Example 2, β-[[N-3-[[[4-(aminoiminomethyl)phenyl]amino]carbonyl]piperidylcarbonyl]amino]-3-pyridinepropanoic acid]
IC50 ([1]; 1 min, 37° C., aggregation monitored 1 minute): 850 nM
Ex Vivo Effect after IG Administration [2]: *

N=C(N)c1ccc(NC(=O)N2CCCC2C(=O)NC(CC(=O)O)c2cccnc2)cc1 (stereo not drawn) [Example 4, β-[[N-2-[[[4-(aminoiminomethyl)phenyl]amino]carbonyl]pyrrolidylcarbonyl]amino]-3-pyridinepropanoic acid]
inhibition at 10 µM ([1]; at 10^-5 M, read-out: Dog PRP % Inh.): 30%

N=C(N)c1ccc(NC(=O)N2CCC(C(=O)NC(CC(=O)O)c3cccnc3)CC2)cc1 (stereo not drawn) [Example 6, β-[[N-[[[4-(aminoiminomethyl)phenyl]amino]carbonyl]4-piperidylcarbonyl]amino]-3-pyridinepropanoic acid]
inhibition at 1 µM ([1]; at 10^-6 M, read-out: Dog PRP % Inh.): 19%
